# Test system: immobilized GST-tagged bait protein domains
# Assay: ProP-PD phage selections (HD2 P8, sublibraries, HD2 P3, HD1 P8) with NGS and confidence level
# Assay type: binding, human
# [1] = HD2 library, bait SUMO1_SUMO__P63165_1_101, known motif instance of the benchmarking set found (TRUE) or not found (FALSE) among selected peptides
# [2] = library HD2, bait KLC1_TPR__Q07866_203_497, whether the validated benchmark motif instance was recovered in the ProP-PD selection (TRUE/FALSE)
# [3] = bait MAP1LC3A_ATG8 (Q9H492 2-121), HD2 library, benchmark motif instance recovered in the ProP-PD selection (TRUE/FALSE)
# [4] = bait SUMO1_SUMO__P63165_1_101, HD2 library, confidence level (1-4) of best matching selected peptide
# [5] = bait SUMO1_SUMO__P63165_1_101, HD2 library, specificity score of best matching selected peptide
# [6] = bait SUMO1_SUMO__P63165_1_101, HD2 library, whether the validated benchmark motif instance was recovered in the ProP-PD selection (TRUE/FALSE)
# [7] = HD2 library, bait CALM1_EF-hand__P0DP23_2_149, benchmark motif instance, in_library_check FALSE, in_library_coverage 0
# [8] = library HD2, bait EPS15_EH__P42566_121_215, whether the validated benchmark motif instance was recovered in the ProP-PD selection (TRUE/FALSE)
# [9] = bait CALM1_EF-hand__P0DP23_2_149, library HD2, benchmarking set of validated motif instances, TRUE = motif instance recovered in the ProP-PD selection
# [10] = bait MAP1LC3B_ATG8 (Q9GZQ8 2-119), HD2 library, benchmark motif instance recovered in the ProP-PD selection (TRUE/FALSE)
substance,measurement,setting,value
ATLDALLAALRRIQRAD,motif_found,"library HD2, bait CALM1_EF-hand__P0DP23_2_149, motif instance NOT in library (in_library_check FALSE, in_library_coverage 0)",FALSE
ATQCDPEEIIVLSDSD-------,motif_found,[1],FALSE
AVPSVPSTDWEDGDLTDTVSGP,motif_found,[2],FALSE
CNSDRVLKRSAEGSNPPKPLKKLRFDIEGSDE,motif_found,"bait KPNA4_Arm (O00629 68-487), HD2 library, benchmark motif instance recovered in the ProP-PD selection (TRUE/FALSE)",FALSE
CRRPLSRTRNPADGIPAPESSS,motif_found,"HD2 library, bait TNKS_TANK-peptide-bind__O95271_174_649, known motif instance of the benchmarking set found (TRUE) or not found (FALSE) among selected peptides",FALSE
DAPIILSDSEEEEMIILEPDKNPKK,motif_found,[1],FALSE
DAQAGKEPGGSRAHSSHLK,motif_found,"library HD2, bait USP7_MATH-TRAF__Q93009_53_206, validated benchmark motif instance, in_library_check TRUE, TRUE/FALSE = instance recovered in ProP-PD selection",FALSE
DATLCSGRFTISTLLS,best_confidence,"bait OXSR1___O95747_434_527, HD2 library, confidence level (1-4) of best matching selected peptide",2
same,best_specificity,"bait OXSR1___O95747_434_527, HD2 library, specificity score of best matching selected peptide",1
same,motif_found,"bait OXSR1___O95747_434_527, HD2 library, whether the validated benchmark motif instance was recovered in the ProP-PD selection (TRUE/FALSE)",TRUE
DDDSSKDSGFTIVSPL,motif_found,[3],TRUE
same,best_confidence,"bait MAP1LC3A_ATG8 (Q9H492 2-121), HD2 library, confidence level (1-4) of best matching peptide",2
same,best_specificity,"bait MAP1LC3A_ATG8 (Q9H492 2-121), HD2 library, specificity score of best matching peptide",1
DDDVLIVYELTPTAEQ,best_confidence,[4],2
same,best_specificity,[5],1
same,motif_found,[6],TRUE
"DDGLDEAFSRLAQSRT,WELDDGLDEAFSRLAQSRTNPQVLD [LDLRAP1]",motif_found,"bait AP2B1_adaptin__P63010_700_937, library HD2, benchmarking set of validated motif instances, TRUE = motif instance recovered in the ProP-PD selection",TRUE
DDIMPAVKTVIRSIRILKFLVAKRKF [KCNQ4 524-549],motif_found,[7],FALSE
DDPDAAELNPFGDPDSEEP,motif_found,[8],FALSE
DEIVDLTCESLEPVVV,best_confidence,[4],2
same,best_specificity,[5],1
same,motif_found,[6],TRUE
DFPPPPPDLEQLRLTD,best_confidence,"library HD2, bait VASP_EVH1__P50552_1_114, confidence level of best matching selected peptide (4 High, 2-3 Medium, 1 Low)",2
same,best_specificity,"library HD2, bait VASP_EVH1__P50552_1_114, specificity score of best matching selected peptide",1
same,motif_found,"library HD2, bait VASP_EVH1__P50552_1_114, validated benchmark motif instance, in_library_check TRUE, TRUE/FALSE = instance recovered in ProP-PD selection",TRUE
DGGTTFEHLWSSLEPD,motif_found,"bait MDM2_p53-binding-domain (Q00987 17-125), HD2 library, benchmark motif instance recovered in the ProP-PD selection (TRUE/FALSE)",FALSE
DGNLYPRLYPELSQYMGLS [SDCBP 49-53],motif_found,"HD2 library, bait PDCD6IP_Alix-V-domain__Q8WUM4_360_702, benchmark motif instance, in_library_check FALSE, in_library_coverage 0",FALSE
DGTISVPETWAKFSND,HD confidence,"bait AP2B1_adaptin__P63010_700_937, HD1 P8 library, confidence level (4 = High, 2-3 = Medium, 1 = Low)",4
same,HD mean counts,"bait AP2B1_adaptin__P63010_700_937, HD1 P8 library, mean NGS counts over replicate selections",1.5
same,HD count proportions,"bait AP2B1_adaptin__P63010_700_937, HD1 P8 library, mean proportion of NGS counts",0.0006297
DIDQMFSTLLGEMDLLTQSLGVDT,motif_found,"HD2 library, bait TLN1_PTB__Q9Y490_309_401, known motif instance of the benchmarking set found (TRUE) or not found (FALSE) among selected peptides",FALSE
DKAITDRVILLQKVIRGFKDRSNFLKLKNA [MYO7A 748-763],motif_found,[7],FALSE
DKEDDQEHPSEKQPSGAESGTLARASLALPTSSLSRTASQSSSHRGWEILRQNTLGHLNLGLNLSEGDGEE [TRPV5],motif_found,[9],FALSE
DLRKIPDSNPFDATAGYRS,motif_found,[8],FALSE
DNEKECIIVWEKK,motif_found,[1],FALSE
DPSMDKAAVKIQAAFKGYKVRKEMKQQEGPM [OBSCN],motif_found,[9],FALSE
DRHRIEEKRKRTYETFKSIMK [RELA 301-307],motif_found,"HD2 library, bait KPNA4_Arm__O00629_68_487, benchmark motif instance, in_library_check FALSE, in_library_coverage 0",FALSE
DSFYNNSYNPFKEVQTPQY,motif_found,[8],FALSE
DSSCDTDDFVMVPAQFPGD,motif_found,[3],FALSE
same,motif_found,[10],FALSE
DSSKDSGFTIVSPLDI,motif_found,[10],TRUE
same,best_confidence,"bait MAP1LC3B_ATG8 (Q9GZQ8 2-119), HD2 library, confidence level (1-4) of best matching peptide",4
same,best_specificity,"bait MAP1LC3B_ATG8 (Q9GZQ8 2-119), HD2 library, specificity score of best matching peptide",1
DTGKENEMDWDDSALTITVNPMET,motif_found,[2],FALSE
DTHAKWEQATKLILNY,confidence,"library HD, bait CALM1_EF-hand__P0DP23_2_149, ProP-PD peptides with disease-related mutations",3
DTLWRPMPKLAPLGLKVAN,motif_found,"library HD2, bait ZMYND11_coiled-coil-MYND__Q15326_480_602, validated benchmark motif instance, in_library_check TRUE, TRUE/FALSE = instance recovered in ProP-PD selection",FALSE

# From article PMC8769072, “Proteome‐scale mapping of binding sites in the unstructured regions of the human proteome” (Molecular Systems Biology, 2022)
